Marks after values point to notes of the source that are not given here.
Columns and labels:
[1] = test system: AHAS enzyme of A205V homozygous (B7imi, IMISUN1); assay: AHAS enzyme activity assay, Set 2; assay type: biochemical, sunflower; details: Set 2 (FIG. 14)
Method: (§1) Twelve greenhouse grown sunflower plants from each of the lines depicted in Table 21 were bulked and subjected to an AHAS enzyme activity assay via the method of Singh et al. (1988) Anal. Biochem. 171:173-179. Each activity assay was repeated twice. Due to the large number of samples, the experiment was split into two sets (Table 21).
(§2) Young, actively growing leaves, from four week old plantlets, were ground in a mortar and pestle with liquid N2 and extracted with a buffer composed of 100 mM Pyruvate, 200 mM KH2PO4, 20 mM MgCl2, 2 mM thiamine pyrophosphate and […]. Plant extracts were then spun through a 10 mL Zeba™ TM desalt spin column (Pierce #89893) as per the manufacturer's recommendation. The inhibition assay was performed as described by Singh et al. (1988) Anal. Biochem. 171:173-179. Assays were conducted in a 96-well format. Fifty μl of inhibitor was added to each well containing 50 μl of soluble protein extract to give final concentrations of 0.78, 1.56, 3.125, 6.25, 12.5, 25, 50 and 100 μM imazamox or 0.78, 1.56, 3.125, 6.25, 12.5, 25, 50 and 100 μM imazapyr. Zero herbicide controls were also included for each line. Reactions were processed as outlined by Singh et al. (1988) Anal. Biochem. 171:173-179. Absorbance was measured at 530 nm. AHAS activity, expressed as the mean of the absorbance values for each treatment, was presented as a percentage of the mean of the zero-herbicide controls.

[2] = test system: AHAS enzyme of A122T homozygous (GM40); assay: AHAS enzyme activity assay, Set 2; assay type: biochemical, sunflower; details: Set 2 (FIG. 14)
Method: as §1, §2

[3] = test system: AHAS enzyme of A122T heterozygous hybrid (cmsBTK47 × R731); assay: AHAS enzyme activity assay, Set 2; assay type: biochemical, sunflower; details: Set 2 (FIG. 14)
Method: as §1, §2

[4] = test system: sunflower hybrid H1 (L1*L2), 205/205; assay: field trial, imazapyr at V8 or R1 stage (Example 4); details: H1 205/205
[5] = test system: sunflower hybrid H2 (L3 × L4), A122T; assay: imazapyr whole plant greenhouse test (Example 2); assay type: in vivo
Method: (§3) Seeds were sown in Petri dishes and, after germination, plantlets were transplanted to pots of 10 cm of diameter in a potting media consisting of equal parts of vermiculite, soil and sand. Plants were grown in a greenhouse under natural light conditions supplemented with 400 W sodium halide lamps to provide a 16 hr daylength. Day/night temperatures were 25 and 20 ° C., respectively. At the V2-V4 stage (Schneiter & Miller (1981) Crop Sci. 21:901-903) 10 plants of each genotype were randomly assigned to each treatment consisting of eight imazapyr doses (0, 40, 80, 160, 240, 320, 400 and 480 g ai/ha, corresponding to untreated, 0.5×, 1×, 2×, 3×, 4×, 5× and 6×, respectively), and a zero-time biomass determination. Experiment was arranged as a randomized block design with a full factorial (sunflower line×treatment) arrangement of treatments and 10 replications.
(§4) On the day of herbicide application ten plants of each genotype were cut at the cotyledonal node and dried at 60° C. for 48 hrs for zero-time dried weight determination.
(§5) The remaining plants were maintained for 14 days after imazapyr treatment (DAT) and their height, Phytotoxicity Index (PI) and above ground dry biomass were determined Height was determined as the distance between the cotyledonal node and the apex of each plant. Above ground biomass data from each line were converted to biomass accumulation after application by subtracting the appropriate average zero- time biomass from each sample. Dry biomass data were converted to percentages of the untreated control plants within each line to allow direct comparisons between groups.

[6] = test system: sunflower genotypes A122T/A205V (mean of H3, H4); assay: imazapyr whole plant greenhouse test (Example 2); assay type: in vivo; details: for Phytotoxicity Index (0-9) 14 days after treatment / biomass accumulation 14 days after treatment, % of untreated / plant height 14 days after treatment, % of untreated: A122T/A205V Mean; for height reduction: heterozygotes A122T/A205V, of the untreated controls; for reduction in biomass weight: heterozygous A122T/A205V
Method: as §3, §4, §5

[7] = test system: sunflower hybrid H5 (L3 x WT), 122/Wild type; assay: field trial, imazapyr at V8 or R1 stage (Example 4); details: H5 122/Wild type
[8] = test system: sunflower hybrid H2 (L3*L4), 122/122; assay: as above; details: H2 122/122
[9] = test system: sunflower line HA445 (high oleic); assay: tolerance to imidazolinones, greenhouse (Example 8)
[10] = 160 g ai/ha applied at R1, 14 DAT
[11] = 160 g ai/ha applied at R1, 21 DAT
[12] = 160 g ai/ha applied at V8, 14 DAT
[13] = 160 g ai/ha applied at V8, 21 DAT

COCc1cnc(C2=NC(C)(C(C)C)C(=O)N2)c(C(=O)O)c1 (stereo not drawn) [imazamox]
AHAS activity, % of untreated control ([1]; 50 μM): 30%
AHAS activity, % of untreated control ([1]; 100 μM): 26%
AHAS activity, % of untreated control ([2]; 50 μM): 63%
AHAS activity, % of untreated control ([2]; 100 μM): 60%
AHAS activity, % of untreated control ([3]; 50 μM): 30%
AHAS activity, % of untreated control ([3]; 100 μM): 30%

CC(C)C1(C)N=C(c2ncccc2C(=O)O)NC1=O (stereo not drawn) [imazapyr]
Mean Phytotoxicity Index (0-50) [4, 10]: 35
Mean Phytotoxicity Index (0-50) [4, 11]: 37.7
Mean Phytotoxicity Index (0-50) [4, 12]: 6
Mean Phytotoxicity Index (0-50) [4, 13]: 3
Phytotoxicity Index (0-9) 14 days after treatment ([5]; dose 0.5 (0.5x, 40 g ai/ha)): 0.5
biomass accumulation 14 days after treatment, % of untreated ([5]; dose 0.5 (0.5x, 40 g ai/ha)): 100%
plant height 14 days after treatment, % of untreated ([5]; dose 0.5 (0.5x, 40 g ai/ha)): 99.2%
Phytotoxicity Index (0-9) 14 days after treatment ([5]; dose 1 (1x, 80 g ai/ha)): 0.5
biomass accumulation 14 days after treatment, % of untreated ([5]; dose 1 (1x, 80 g ai/ha)): 97.2%
plant height 14 days after treatment, % of untreated ([5]; dose 1 (1x, 80 g ai/ha)): 98.6%
Phytotoxicity Index (0-9) 14 days after treatment ([5]; dose 2 (2x, 160 g ai/ha)): 0.5
biomass accumulation 14 days after treatment, % of untreated ([5]; dose 2 (2x, 160 g ai/ha)): 97.9%
plant height 14 days after treatment, % of untreated ([5]; dose 2 (2x, 160 g ai/ha)): 100.3%
Phytotoxicity Index (0-9) 14 days after treatment ([5]; dose 3 (3x, 240 g ai/ha)): 0.5
biomass accumulation 14 days after treatment, % of untreated ([5]; dose 3 (3x, 240 g ai/ha)): 98.2%
plant height 14 days after treatment, % of untreated ([5]; dose 3 (3x, 240 g ai/ha)): 99.6%
Phytotoxicity Index (0-9) 14 days after treatment ([5]; dose 4 (4x, 320 g ai/ha)): 0.5
biomass accumulation 14 days after treatment, % of untreated ([5]; dose 4 (4x, 320 g ai/ha)): 97.8%
plant height 14 days after treatment, % of untreated ([5]; dose 4 (4x, 320 g ai/ha)): 101.0%
Phytotoxicity Index (0-9) 14 days after treatment ([5]; dose 5 (5x, 400 g ai/ha)): 0.5
biomass accumulation 14 days after treatment, % of untreated ([5]; dose 5 (5x, 400 g ai/ha)): 85.1%
plant height 14 days after treatment, % of untreated ([5]; dose 5 (5x, 400 g ai/ha)): 87.0%
Phytotoxicity Index (0-9) 14 days after treatment ([5]; dose 6 (6x, 480 g ai/ha)): 0.5
biomass accumulation 14 days after treatment, % of untreated ([5]; dose 6 (6x, 480 g ai/ha)): 79.5%
plant height 14 days after treatment, % of untreated ([5]; dose 6 (6x, 480 g ai/ha)): 79.6%
Phytotoxicity Index (0-9) 14 days after treatment ([6]; dose 0.5 (0.5x, 40 g ai/ha)): 0.5
biomass accumulation 14 days after treatment, % of untreated ([6]; dose 0.5 (0.5x, 40 g ai/ha)): 99.6%
plant height 14 days after treatment, % of untreated ([6]; dose 0.5 (0.5x, 40 g ai/ha)): 99.4%
Phytotoxicity Index (0-9) 14 days after treatment ([6]; dose 1 (1x, 80 g ai/ha)): 0.5
biomass accumulation 14 days after treatment, % of untreated ([6]; dose 1 (1x, 80 g ai/ha)): 98.9%
plant height 14 days after treatment, % of untreated ([6]; dose 1 (1x, 80 g ai/ha)): 98.3%
Phytotoxicity Index (0-9) 14 days after treatment ([6]; dose 2 (2x, 160 g ai/ha)): 0.5
biomass accumulation 14 days after treatment, % of untreated ([6]; dose 2 (2x, 160 g ai/ha)): 93.2** %
plant height 14 days after treatment, % of untreated ([6]; dose 2 (2x, 160 g ai/ha)): 98.3%
Phytotoxicity Index (0-9) 14 days after treatment ([6]; dose 3 (3x, 240 g ai/ha)): 0.5
biomass accumulation 14 days after treatment, % of untreated ([6]; dose 3 (3x, 240 g ai/ha)): 89.5** %
plant height 14 days after treatment, % of untreated ([6]; dose 3 (3x, 240 g ai/ha)): 96.9%
Phytotoxicity Index (0-9) 14 days after treatment ([6]; dose 4 (4x, 320 g ai/ha)): 0.5
biomass accumulation 14 days after treatment, % of untreated ([6]; dose 4 (4x, 320 g ai/ha)): 86.4** %
plant height 14 days after treatment, % of untreated ([6]; dose 4 (4x, 320 g ai/ha)): 93.5** %
Phytotoxicity Index (0-9) 14 days after treatment ([6]; dose 5 (5x, 400 g ai/ha)): 0.6
biomass accumulation 14 days after treatment, % of untreated ([6]; dose 5 (5x, 400 g ai/ha)): 75.4** %
plant height 14 days after treatment, % of untreated ([6]; dose 5 (5x, 400 g ai/ha)): 76.3** %
Phytotoxicity Index (0-9) 14 days after treatment ([6]; dose 6 (6x, 480 g ai/ha)): 1
biomass accumulation 14 days after treatment, % of untreated ([6]; dose 6 (6x, 480 g ai/ha)): 67.5** %
plant height 14 days after treatment, % of untreated ([6]; dose 6 (6x, 480 g ai/ha)): 61.8** %
height reduction ([6]; 0.5x): 0.6%
height reduction ([6]; 6x): 38.2%
reduction in biomass weight ([6]; 0.5x): 0.3%
reduction in biomass weight ([6]; 6x): 33%
Mean Phytotoxicity Index (0-50) [7, 10]: 11.7
Mean Phytotoxicity Index (0-50) [7, 11]: 23.3
Mean Phytotoxicity Index (0-50) [7, 12]: 15
Mean Phytotoxicity Index (0-50) [7, 13]: 5
Mean Phytotoxicity Index (0-50) [8, 10]: 2.3
Mean Phytotoxicity Index (0-50) [8, 11]: 1.7
Mean Phytotoxicity Index (0-50) [8, 12]: 5
Mean Phytotoxicity Index (0-50) [8, 13]: 1
outcome of the herbicide treatment ([9]; 160 gr/ha at V4): killed
Mean Phytotoxicity Index (0-9) ([9]; 160 gr/ha at V4, fourteen days after treatment): 8.8
